Test results: PubChem BioAssay AID463203 (Broad Institute, 2010)
Calls of active or inactive are those of the source.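 How the source made its calls: active means more than half of replicate measurements showing over 20% loss of kinase signal relative to plate controls; inconclusive means some but at most half of replicates over 20% loss; inactive means no replicate over 20% signal loss.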

Target: Glycogen synthase kinase-3 alpha (Homo sapiens) (UniProt P49840)
Assay: concentration-response blocking of human GSK3A – biochemical, luminescence, cell-free homogeneous, retest, dose response (AID 463203)
Details: GSK-3 alpha enzyme, ADP-Glo luminescence, 60 min

Glycogen synthase kinase-3 alpha (Homo sapiens), sequence (P49840 whole entry, looked up): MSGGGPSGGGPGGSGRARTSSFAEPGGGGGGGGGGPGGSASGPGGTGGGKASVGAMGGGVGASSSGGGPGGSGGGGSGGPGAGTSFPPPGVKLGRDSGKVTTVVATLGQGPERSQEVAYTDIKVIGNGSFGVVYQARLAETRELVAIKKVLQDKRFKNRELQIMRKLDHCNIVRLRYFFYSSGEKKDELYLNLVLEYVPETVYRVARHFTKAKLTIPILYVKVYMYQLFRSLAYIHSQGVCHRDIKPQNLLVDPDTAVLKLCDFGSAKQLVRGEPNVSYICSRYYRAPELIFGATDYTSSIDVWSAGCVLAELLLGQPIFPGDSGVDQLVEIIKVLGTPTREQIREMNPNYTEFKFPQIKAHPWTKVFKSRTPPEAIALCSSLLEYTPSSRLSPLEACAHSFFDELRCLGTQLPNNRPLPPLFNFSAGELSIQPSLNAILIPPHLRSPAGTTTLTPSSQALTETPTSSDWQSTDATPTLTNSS

With `O=C(CSc1nnc(-c2ccncc2)s1)Nc1ccccc1` the AC50 was > 30 µM (inactive).

With `C=CCNC(=S)N1CCN(c2cccc(C(F)(F)F)c2)CC1` the AC50 was > 30 µM (inactive).

In the case of `O=C1c2cnc3nc(SCc4ccc(Cl)cc4)nn3c2CC2c3ccccc3CCN12` (centres undefined), the AC50 is reported as > 30 µM (inactive).

In the case of `COc1ccc(C(=O)Nc2nc(C)cc(C)n2)cc1`, the AC50 is reported as > 30 µM (inactive).

With `COc1cccc(CN2CCN(Cc3cc(OC)c(OC)cc3[N+](=O)[O-])CC2)c1` the AC50 was > 30 µM (inactive).

`COc1ccccc1OCCNC(=O)C1CCN(C(C)=O)CC1` was tested, and the AC50 was > 30 µM (inactive).

With `O=C(Nc1ccsc1C(=O)O)c1ccc(Cl)cc1` the AC50 was > 30 µM (inactive).

In the case of `Cc1sc(NC(=S)NC(=O)C(C)(C)C)c(C(N)=O)c1C`, the AC50 is reported as > 30 µM (inactive).

For `Cc1ccc(C(=O)c2cnc3cc4c(cc3c2S(=O)(=O)c2ccccc2)OCCO4)cc1`, the AC50 was > 30 µM (inactive).

For `CCC(C)Sc1nc2c(c(=O)[nH]1)C(c1cccs1)C1=C(CCCC1=O)N2` (centres undefined), the AC50 was > 30 µM (inactive).

For `Cc1ccc(NC(=O)CSc2nnc(-c3ccncc3)s2)cc1`, the AC50 was > 30 µM (inactive).

`Cn1c(=O)c2[nH]c(CNc3ccc(C(=O)O)cc3)nc2n(C)c1=O` was tested, and the AC50 was > 30 µM (inactive).

In the case of `O=[N+]([O-])c1ccc(O)c(CN2CCCCCC2)c1`, the AC50 is reported as > 30 µM (inactive).

`COc1cc(/C=N/NC(=O)c2ccoc2C)ccc1O` was tested, and the AC50 was > 30 µM (inactive).

Work on `O=C(c1ccc(Cn2cnnn2)cc1)N1CCCC(Nc2ccc(F)cc2)C1` (centres undefined) yielded an AC50 of 16.1 µM.

For `Cc1cc(=O)[nH]c(SCC(=O)O)c1C#N`, the AC50 was > 30 µM (inactive).

With `Nc1nonc1-n1nnc(C(=O)N/N=C/c2ccncc2)c1CSc1ccc(Cl)cc1` the AC50 was > 30 µM (inactive).

`COc1ccc(Br)cc1C(=O)Nc1cccc(NC(=O)c2ccco2)c1` was tested, and the AC50 was > 30 µM (inactive).

With `CC1(C)CC(=O)C(C(C2=C(O)CC(C)(C)CC2=O)c2cccc(O)c2)C(=O)C1` (centres undefined) the AC50 was > 30 µM (inactive).

For `COc1ccc(OCC(=O)N/N=C/c2ccc(N(C)C)cc2)cc1`, the AC50 was > 30 µM (inactive).

In the case of `CSc1ccc(C2C3(C#N)C(N)=NC4(OCCO4)C23C#N)cc1` (centres undefined), the AC50 is reported as > 30 µM (inactive).

In the case of `Oc1ccc2cccnc2c1`, the AC50 is reported as > 30 µM (inactive).

With `Cc1nn(C)c(C)c1CN(C)S(=O)(=O)c1ccc(F)cc1` the AC50 was > 30 µM (inactive).

`COC(=O)c1c(C(C)=O)cnc2ccc(Br)cc12` was tested, and the AC50 was > 30 µM (inactive).

`CCCCN(CCCC)S(=O)(=O)c1ccc2oc(C(=O)N3CCOCC3)c(C)c2c1` was tested, and the AC50 was > 30 µM (inactive).

`C[C@H](CO)N1C[C@H](C)[C@@H](CN(C)S(=O)(=O)c2cccs2)Oc2c(NS(=O)(=O)c3ccc(F)cc3)cccc2C1=O` was tested, and the AC50 was > 30 µM (inactive).

`COc1c(OC)c(O)c2c(=O)c(O)c(-c3ccccc3)oc2c1OC` was tested, and the AC50 was > 30 µM (inactive).

For `CCOC(=O)c1c(NC(=O)CN2C(=O)NC3(CCCCC3C)C2=O)sc(C)c1C` (centres undefined), the AC50 was > 30 µM (inactive).

In the case of `COc1cc(/C=C2/S/C(=N/S(=O)(=O)Cc3ccccc3)NC2=O)c([N+](=O)[O-])cc1OC`, the AC50 is reported as > 30 µM (inactive).

With `O=C(NCCCn1ccnc1)C(Cl)(Cl)Cl` the AC50 was > 30 µM (inactive).

`CC(C)NC(=O)Nc1ccc(Br)cc1Cl` was tested, and the AC50 was > 30 µM (inactive).

For `Cc1onc(-c2ccccc2Cl)c1C(=O)Nc1cccc(-c2nc3ncccn3c2C)c1`, the AC50 was > 30 µM (inactive).

In the case of `Cc1cccc(-c2nnc(SCc3nc4ccccc4[nH]3)n2Cc2ccco2)c1`, the AC50 is reported as > 30 µM (inactive).

For `O=C(Nc1ccccc1C(=O)NC1CCCCC1)c1ccco1`, the AC50 was > 30 µM (inactive).

In the case of `COC(=O)c1c(C)c(OC(=O)c2c(C)cc(O)c(C=O)c2O)cc(C)c1O`, the AC50 is reported as > 30 µM (inactive).

With `CCN1C(=O)/C(=C\c2cccs2)C(C(=O)OC)=C1C` the AC50 was > 30 µM (inactive).

Work on `Cc1cc(NS(=O)(=O)c2ccc(Nc3nc(-c4ccc(O)cc4)cs3)cc2)no1` yielded an AC50 of 15.3 µM.

For `CC(=O)c1c(O)cc(O)cc1CC(=O)O`, the AC50 was > 30 µM (inactive).

In the case of `COc1ccc(-c2noc(CSc3nc(N)c(-c4ccccc4)c(=O)[nH]3)n2)cc1`, the AC50 is reported as > 30 µM (inactive).

For `CCOC(=O)c1c(C)c[nH]c1C`, the AC50 was > 30 µM (inactive).

Work on `O=C(c1coc2ccc(O)c(CN3CCOCC3)c12)C1CC1` yielded an AC50 of 22.8 µM.

With `COc1c(C)cc(Br)cc1C(=O)Nc1cccc(NC(=O)c2ccco2)c1` the AC50 was > 30 µM (inactive).

For `COc1ccc(-n2c(O)c(C(C)=NCCCn3ccnc3)c(=O)[nH]c2=O)cc1`, the AC50 was 19 µM.

With `O=C(NC(=S)Nc1cccc2c(O)cccc12)c1ccccc1[N+](=O)[O-]` the AC50 was > 30 µM (inactive).

In the case of `O=c1c(O[C@@H]2O[C@H](CO)[C@@H](O)[C@H](O)[C@H]2O)c(-c2ccc(O)cc2)oc2cc(O)cc(O)c12`, the AC50 is reported as 30.4 µM.

With `Cc1cnc(NC(=O)C2CC(=O)N(c3cccc(Cl)c3)C2)s1` (centres undefined) the AC50 was 12.6 µM.

In the case of `COc1ccc2nc(NC(=O)CN3CCN(C)CC3)sc2c1`, the AC50 is reported as > 30 µM (inactive).

`CC1(C)CC(=O)C=C(c2cccc(O)c2)C1` was tested, and the AC50 was > 30 µM (inactive).

`COC(=O)c1cc(OC)nc2ccc(Br)cc12` was tested, and the AC50 was > 30 µM (inactive).

For `COc1c2ccccc2c(OC)c2ccccc12`, the AC50 was > 30 µM (inactive).

For `NS(=O)(=O)c1ccc(N=Nc2ccc(=O)[nH]c2O)cc1`, the AC50 was 6.56 µM.

`CCN(CC)CCCNc1nc(N)c([N+](=O)[O-])c(N2CCCCCC2)n1` was tested, and the AC50 was 29.6 µM.

`CCOc1ccc2nc(NC(=O)CSc3ccccc3)sc2c1` was tested, and the AC50 was > 30 µM (inactive).

In the case of `Cc1cc(C)c(/C=N/NC(=O)c2nnn(-c3nonc3N)c2CN2CCC(C)CC2)c(C)c1`, the AC50 is reported as > 30 µM (inactive).

In the case of `CCOC(=O)c1nc2sc3c(c2c(=O)[nH]1)CCC(C)C3` (centres undefined), the AC50 is reported as > 30 µM (inactive).

In the case of `CCN1CCN(c2nc(N(C)c3ccccc3)nc(N)c2[N+](=O)[O-])CC1`, the AC50 is reported as > 30 µM (inactive).

`CCOc1ccc(C(=O)c2cnc3ccccc3c2N2CCN(CC)CC2)cc1` was tested, and the AC50 was > 30 µM (inactive).

In the case of `CCOc1ccc(-c2c(C(=O)N/N=C(\C)c3cccnc3)nnn2-c2nonc2N)cc1`, the AC50 is reported as > 30 µM (inactive).

For `CCn1c(C)nc2cc(-c3nnc(-c4c(-c5ccccc5)noc4C)o3)ccc21`, the AC50 was > 30 µM (inactive).

For `CCCc1c(C(=O)N/N=C/c2cccnc2)nnn1-c1nonc1N`, the AC50 was > 30 µM (inactive).

`COc1ccc(CCNC2=C(Cl)C(=O)N(Cc3ccccc3)C2=O)cc1OC` was tested, and the AC50 was > 30 µM (inactive).

With `Cc1ccc(/C=N/NC(=O)c2nnn(-c3nonc3N)c2CN(C)C)s1` the AC50 was > 30 µM (inactive).

`COc1ccc(CCn2cnc(=O)c(C#N)c2C)cc1OC` was tested, and the AC50 was > 30 µM (inactive).

With `CCc1ccc(C2C3=C(CC(C)(C)CC3=O)Nc3c2c(=O)[nH]c2nc(C)nn32)cc1` (centres undefined) the AC50 was > 30 µM (inactive).
